Test results: ChEMBL document CHEMBL5724914, “Linking interpersonal differences in gut microbiota composition and drug biotransformation activity” (2024)

How the values were obtained:
[1] = (§1) The drug is tested on Z-020 corresponding to rabbit gut metagenome with ENA study accession number: PRJEB37062 and ENA sample accession number: ERS12561819 for biotransformation under anaerobic condition. The drug concentrations were measured over 9 timepoints collected between 0 and 24 hours of incubation by liquid-chromatography-coupled mass spectrometry (LC–MS); conditions: 2 µM
[2] = as §1, with “WLS-220” for “Z-020”, “human” for “rabbit”, “ERS12561769” for “ERS12561819”; conditions: 2 µM
[3] = human gut metagenome, 24 h, 2 µM
[4] = human gut metagenome, 24 h, 2 µM; remark: listed apart in the source
[5] = human gut metagenome, 24 h, 2 µM; remark: listed apart in the source
[6] = as §1, with “WLS-090” for “Z-020”, “human” for “rabbit”, “ERS12561753” for “ERS12561819”; conditions: 2 µM
[7] = as §1, with “WLS-027” for “Z-020”, “human” for “rabbit”, “ERS12561744” for “ERS12561819”; conditions: 2 µM
[8] = as §1, with “Z-003” for “Z-020”, “pig” for “rabbit”, “ERS12561803” for “ERS12561819”; conditions: 2 µM
[9] = human gut metagenome, 24 h, 2 µM; remark: listed apart in the source
[10] = as §1, with “WLS-370” for “Z-020”, “human” for “rabbit”, “ERS12561793” for “ERS12561819”; conditions: 2 µM
[11] = human gut metagenome, 24 h, 2 µM; remark: listed apart in the source
[12] = human gut metagenome, 24 h, 2 µM; remark: listed apart in the source
[13] = human gut metagenome, 24 h, 2 µM; remark: listed apart in the source
[14] = human gut metagenome, 24 h, 2 µM; remark: listed apart in the source
[15] = human gut metagenome, 24 h, 2 µM; remark: listed apart in the source
[16] = human gut metagenome, 24 h, 2 µM; remark: listed apart in the source
[17] = as §1, with “Z-013” for “Z-020”, “ERS12561813” for “ERS12561819”; conditions: 2 µM
Also: call rule not given here.

SMILES	Bacterial Biotransformation [1]	Bacterial Biotransformation [2]	Bacterial Biotransformation [3]	Bacterial Biotransformation [4]	Bacterial Biotransformation [5]	Bacterial Biotransformation [6]	Bacterial Biotransformation [7]	Bacterial Biotransformation [8]	Bacterial Biotransformation [9]	Bacterial Biotransformation [10]	Bacterial Biotransformation [11]	Bacterial Biotransformation [12]	Bacterial Biotransformation [13]	Bacterial Biotransformation [14]	Bacterial Biotransformation [15]	Bacterial Biotransformation [16]	Bacterial Biotransformation [17]
N[C@@H](Cc1ccc(N(CCCl)CCCl)cc1)C(=O)O	Compound metabolized	Compound metabolized	Compound metabolized	Compound metabolized	Compound metabolized	Compound metabolized	Compound metabolized	Compound metabolized	Compound metabolized	Compound NOT metabolized	Compound metabolized	Compound NOT metabolized	Compound NOT metabolized	Compound metabolized	Compound metabolized	–	–
CN(C)CCc1c[nH]c2ccc(CS(=O)(=O)N3CCCC3)cc12 [ALMOTRIPTAN]	–	Compound NOT metabolized	Compound NOT metabolized	Compound NOT metabolized	Compound NOT metabolized	Compound metabolized	Compound NOT metabolized	–	Compound NOT metabolized	Compound NOT metabolized	Compound NOT metabolized	Compound NOT metabolized	Compound NOT metabolized	Compound NOT metabolized	Compound metabolized	Compound NOT metabolized	–
CCCCC(=O)O[C@]1(C(=O)CO)[C@@H](C)C[C@H]2[C@@H]3CCC4=CC(=O)C=C[C@]4(C)[C@@]3(F)[C@@H](O)C[C@@]21C [BETAMETHASONE VALERATE]	–	Compound metabolized	Compound NOT metabolized	Compound metabolized	Compound metabolized	Compound metabolized	Compound metabolized	–	Compound metabolized	Compound NOT metabolized	Compound NOT metabolized	Compound NOT metabolized	Compound NOT metabolized	Compound metabolized	Compound metabolized	Compound NOT metabolized	–
Cc1nc(Nc2ncc(C(=O)Nc3c(C)cccc3Cl)s2)cc(N2CCN(CCO)CC2)n1 [DASATINIB ANHYDROUS]	–	Compound metabolized	Compound NOT metabolized	Compound metabolized	Compound metabolized	Compound metabolized	Compound metabolized	–	Compound metabolized	Compound metabolized	Compound metabolized	Compound NOT metabolized	Compound NOT metabolized	Compound NOT metabolized	Compound metabolized	Compound metabolized	–
CNCC[C@H](Oc1cccc2ccccc12)c1cccs1 [DULOXETINE]	–	Compound NOT metabolized	Compound NOT metabolized	Compound NOT metabolized	Compound NOT metabolized	Compound metabolized	Compound NOT metabolized	–	Compound NOT metabolized	Compound NOT metabolized	Compound NOT metabolized	Compound NOT metabolized	Compound metabolized	Compound NOT metabolized	Compound metabolized	Compound NOT metabolized	–
COCCCC/C(=N\OCCN)c1ccc(C(F)(F)F)cc1.O=C(O)/C=C\C(=O)O [FLUVOXAMINE MALEATE]	–	Compound metabolized	Compound NOT metabolized	Compound metabolized	Compound NOT metabolized	Compound metabolized	Compound NOT metabolized	–	Compound metabolized	Compound metabolized	Compound metabolized	Compound NOT metabolized	Compound NOT metabolized	Compound NOT metabolized	Compound NOT metabolized	Compound NOT metabolized	–
CN1CCN(C2=Nc3ccccc3Oc3ccc(Cl)cc32)CC1.O=C(O)CCC(=O)O [LOXAPINE SUCCINATE]	–	Compound NOT metabolized	Compound NOT metabolized	Compound NOT metabolized	Compound NOT metabolized	Compound NOT metabolized	Compound NOT metabolized	–	Compound NOT metabolized	Compound NOT metabolized	Compound NOT metabolized	Compound NOT metabolized	Compound NOT metabolized	Compound NOT metabolized	Compound NOT metabolized	Compound NOT metabolized	–
N#Cc1ccc2c(c1)N(CCCN1CCC(O)CC1)c1ccccc1S2 [PERICIAZINE]	–	Compound metabolized	Compound NOT metabolized	Compound NOT metabolized	Compound NOT metabolized	Compound metabolized	Compound metabolized	–	Compound NOT metabolized	Compound NOT metabolized	Compound metabolized	Compound NOT metabolized	Compound NOT metabolized	Compound NOT metabolized	Compound metabolized	Compound NOT metabolized	–
CNNCc1ccc(C(=O)NC(C)C)cc1 [PROCARBAZINE]	–	–	–	Compound metabolized	Compound metabolized	Compound NOT metabolized	–	Compound NOT metabolized	Compound metabolized	Compound metabolized	Compound NOT metabolized	Compound metabolized	Compound NOT metabolized	Compound metabolized	Compound metabolized	Compound metabolized	Compound metabolized
